Values joined by “and” are separate entries in the source; they are usually repeats but may differ in a detail not shown here. Equal values may be shown once. Where a name gives a salt, the structure may show the parent alone.
Tests used:
[1] = in vivo resorption examination in mice: serum concentration determined microbiologically from inhibition zones; parameters: species or system Male CFLP mice; conditions: for resorption: in vivo, comparison in words; for concentration at 0.5 h: 0.5 hour after treatment, as oxolinic acid; for concentration at 0.5 h / concentration at 1 h / concentration at 2 h / concentration at 3 h / concentration at 4 h: read-out: Plasma concentrations from the calibration curve; for concentration at 1 h: 1 hour after treatment; for concentration at 2 h: 2 hours after treatment; for concentration at 3 h: 3 hours after treatment; for concentration at 4 h: 4 hours after treatment; for Diameters of the inhibition zones: parallels a, b, c
Protocol: Male CFLP mice with 25 g of an average body weight were used for these experiments. After starving for 12 hours, the animals were given oxolinic acid or choline oxolinate, respectively in a volume of 2 ml/100 g of body weight as an aqueous suspension containing 1 % of methylcellulose. The doses administered were 50 mg/kg of body weight of oxolinic acid or 70 mg/kg of body weight of choline oxolinate, respectively. )These doses are equimolar as calculated for oxolinic acid.) At 0.5, 1, 2, 3 or 4 hours, respectively after treatment the animals were killed, their blood were centrifuged and the serum were used for the microbiological determination of the concentration.
(§1) The examinations were carried out in three parallels. 50/ul of the serum were applied to an agar gel plate containing Proteus Mirabilis in a concentration of 10^7 germs/ml. Simultaneously, a calibration curve was taken up with 50 ul each of suspensions containing oxolinic acid in a concentration of 1, 2, 4, 5, 10, 50 and 100 ug/ml, respectively. The serum concentrations were calculated from the average of diameters of the inhibition zones by using the calibration curve.
(§2) The calibration values are shown in Table I and in Figue 3, respectively. The results of determinations are summarized in Tables II and III and in Figure 4, respectively.

[2] = solubility of the substance in water and solvents
Proteus Mirabilis = test: calibrating series on agar gel plate: inhibition zone against concentration; assay type: cell-based; conditions: 50 ul applied, 2 parallels
Protocol: as §1, with “The examinations were carried out in three parallels.” left out
as §2

[3] = mouse, serum, 50 mg/kg oxolinic acid or 70 mg/kg choline oxolinate
[4] = serum sampled at 1.0 hour, 50 mg/kg oxolinic acid or 70 mg/kg choline oxolinate
[5] = serum sampled at 2.0 hour, 50 mg/kg oxolinic acid or 70 mg/kg choline oxolinate
[6] = serum sampled at 3.0 hour, 50 mg/kg oxolinic acid or 70 mg/kg choline oxolinate
[7] = serum sampled at 4.0 hour, 50 mg/kg oxolinic acid or 70 mg/kg choline oxolinate

| Structure (SMILES) | resorption [1] | concentration at 0.5 h [1, 3] [ng/mL] | concentration at 1 h [1, 3] [ng/mL] | concentration at 2 h [1, 3] [ng/mL] | concentration at 3 h [1, 3] [ng/mL] | concentration at 4 h [1, 3] [ng/mL] | Diameters of the inhibition zones [1, 4] | Diameters of the inhibition zones [1, 5] | Diameters of the inhibition zones [1, 6] | Diameters of the inhibition zones [1, 7] | solubility in water ([2]; water) | further results |
| --- | --- | --- | --- | --- | --- | --- | --- | --- | --- | --- | --- | --- |
| CCn1cc(C(=O)O)c(=O)c2cc3c(cc21)OCO3 [choline oxolinate, 2-hydroxyethyl-trimethylammonium salt of 1-ethyl-3-carboxy-4-oxo-6,7-methylenedioxy-1,4-dihydroquinoline] | substantially better resorbed | 56000 | 26000 | 15000 | 6600 | 3100 | 19.3 mm and 19.1 mm and 20.9 mm | 18.2 mm and 17.8 mm | 13.9 mm and 15.3 mm and 11.4 mm | 11.7 mm and 14.3 mm | higher than 1 g/ml | bioavailability ([1]; mice, compared with administration of oxolinic acid): sigrificantly higher; Tmax ([1]; mouse, serum, mice, 70 mg/kg choline oxolinate, first sampling, read-out: time at which a high level of serum concentration was reached): ≤ 30 min; Diameters of the inhibition zones ([1]; serum sampled at 0.5 hour, equimolar doses: 50 mg/kg oxolinic acid or 70 mg/kg choline oxolinate, 50 ul serum on Proteus Mirabilis plate): 22.6 mm and 21.9 mm; solubility (in words) ([2]; acetone): insoluble; solubility (in words) ([2]; chloroform): dissolves well; solubility (in words) ([2]; ethanol): dissolves well; solubility (in words) ([2]; ether): insoluble; solubility (in words) ([2]; water): dissolves well |
| CCn1cc(C(=O)O)c(=O)c2cc3c(cc21)OCO3 [oxolinic acid, 1-ethyl--3-carboxy-4-oxo-6,7-methylenedioxy-1,4-dihydroquinoline] |  | 15000 | 14500 | 4600 | 4200 | 4800 | 17.7 mm and 18.2 mm and 17.5 mm | 15.3 mm and 17.4 mm and 8.8 mm | 14.0 mm and 16.0 mm and 14.3 mm | 16.8 mm and 14.7 mm and 14.1 mm | 6,5 /ug/ml | zone of inhibition at 1 µg/mL (Proteus Mirabilis; Proteus mirabilis, concentration 1 /ug/ml, read-out: Diameter of the inhibition zone): 8.6 mm; zone of inhibition at 2 µg/mL (Proteus Mirabilis; Proteus mirabilis, concentration 2 /ug/ml, read-out: Diameter of the inhibition zone): 11.6 mm; zone of inhibition at 4 µg/mL (Proteus Mirabilis; Proteus mirabilis, concentration 4 /ug/ml, read-out: Diameter of the inhibition zone): 14.4 mm; zone of inhibition at 5 µg/mL (Proteus Mirabilis; Proteus mirabilis, concentration 5 /ug/ml, read-out: Diameter of the inhibition zone): 15 mm; zone of inhibition at 10 µg/mL (Proteus Mirabilis; Proteus mirabilis, concentration 10 /ug/ml, read-out: Diameter of the inhibition zone): 17.9 mm; zone of inhibition at 50 µg/mL (Proteus Mirabilis; Proteus mirabilis, concentration 50 /ug/ml, read-out: Diameter of the inhibition zone): 20.7 mm; zone of inhibition at 100 µg/mL (Proteus Mirabilis; Proteus mirabilis, concentration 100 /ug/ml, read-out: Diameter of the inhibition zone): 26.5 mm; Diameter of the inhibition zone (Proteus Mirabilis; concentration 1 /ug/ml): 8.5 mm; Diameter of the inhibition zone (Proteus Mirabilis; concentration 2 /ug/ml): 11.9 mm; Diameter of the inhibition zone (Proteus Mirabilis; concentration 4 /ug/ml): 14.1 mm; Diameter of the inhibition zone (Proteus Mirabilis; concentration 5 /ug/ml): 14.7 mm; Diameter of the inhibition zone (Proteus Mirabilis; concentration 10 /ug/ml): 17.2 mm; Diameter of the inhibition zone (Proteus Mirabilis; concentration 50 /ug/ml): 19.4 mm; Diameter of the inhibition zone (Proteus Mirabilis; concentration 100 /ug/ml): 24.7 mm |
| CCn1cc(C(=O)[O-])c(=O)c2cc3c(cc21)OCO3.[Na+] [sodium oxolinate] | weaker than that of choline oxolinate |  |  |  |  |  |  |  |  |  |  |  |

— EP0153171A2, “New 2-hydroxyethyl-trimethylammonium salt of 1-ethyl-3-carboxy-4-oxo-6,7-methylenedioxy-1,4-dihydroquinoline, process for the preparation thereof and pharmaceutical composition containing it” (CHINOIN Gyogyszer és Vegyészeti Termékek Gyára RT., priority 1984, dated 1985)
